PMC5674183 (2017)

Tests used:
[1] = tested on: 5′-TAMRA-BCL-2-C (DNA, i motif) CAGCCCCGCTCCCGCCCCCTTCCTCCCGCGCCCGCCCCT; test: fluorescence quenching titration; settings: K+ (60 mM K-cacodylate); pH 6 (folded at pH 4.8), 25 °C, 250 nM DNA
[2] = tested on: h-TELO-C (DNA, i motif) TAACCCTAACCCTAACCCTAACCC; test: thiazole orange displacement (fluorescence); settings: K+ (60 mM K-cacodylate); pH 6; thiazole orange displaced, 0.25 μM DNA
[3] = tested on: BCL-2-G (DNA, G4) AGGGGCGGGCGCGGGAGGAAGGGGGCGGGAGCGGGGCGT; test: thiazole orange displacement (fluorescence); settings: K+ (60 mM K-cacodylate); pH 7; 0.5 μM thiazole orange displaced, 0.25 μM DNA
[4] = tested on: c-MYC-C (DNA, i motif) TCCCCACCTTCCCCACCCTCCCCACCCTCCCCA; test: thiazole orange displacement (fluorescence); settings: K+ (60 mM K-cacodylate); pH 6 (folded at pH 4.8); 0.5 μM thiazole orange displaced, 0.25 μM DNA
[5] = tested on: 5′-TAMRA-c-MYC-C (DNA, i motif) TCCCCACCTTCCCCACCCTCCCCACCCTCCCCA; test: fluorescence quenching titration; settings: K+ (60 mM K-cacodylate); pH 6 (folded at pH 4.8), 25 °C, 250 nM DNA
[6] = tested on: 3′-TAMRA-c-MYC-G (DNA, G4) TGGGGAGGGTGGGGAGGGTGGGGAAGGTGGGGA; test: fluorescence quenching titration; settings: K+ (60 mM K-cacodylate); pH 7, 25 °C, 250 nM DNA
[7] = tested on: BCL-2-C (DNA, i motif) CAGCCCCGCTCCCGCCCCCTTCCTCCCGCGCCCGCCCCT; test: thiazole orange displacement (fluorescence); settings: K+ (60 mM K-cacodylate); pH 6 (folded at pH 4.8); 0.5 μM thiazole orange displaced, 0.25 μM DNA
[8] = tested on: h-TELO-G (DNA, G4) GGGTTAGGGTTAGGGTTAGGG; test: thiazole orange displacement (fluorescence); settings: K+ (60 mM K-cacodylate); pH 7; thiazole orange displaced, 0.25 μM DNA
[9] = tested on: c-MYC-G (DNA, G4) TGGGGAGGGTGGGGAGGGTGGGGAAGGTGGGGA; test: thiazole orange displacement (fluorescence); settings: K+ (60 mM K-cacodylate); pH 7; 0.5 μM thiazole orange displaced, 0.25 μM DNA
[10] = tested on: 5′-TAMRA-BCL-2-G (DNA, G4) AGGGGCGGGCGCGGGAGGAAGGGGGCGGGAGCGGGGCGT; test: fluorescence quenching titration; settings: K+ (60 mM K-cacodylate); pH 7, 25 °C, 250 nM DNA
[11] = tested on: 5′-TAMRA-ds DNA (DNA, hairpin, hexaethylene glycol (HEG) linker between 10 and 11) TATAGCTATATATAGCTATA; test: fluorescence quenching titration; settings: K+ (60 mM K-cacodylate); pH 7, 25 °C, 250 nM DNA; up to 30 μM
[12] = tested on: 5′-TAMRA-c-MYC-G (DNA, G4) TGGGGAGGGTGGGGAGGGTGGGGAAGGTGGGGA; test: fluorescence quenching titration; settings: K+ (60 mM K-cacodylate); pH 7, 25 °C, 250 nM DNA
[13] = tested on: 3′-TAMRA-c-MYC-C (DNA, i motif) TCCCCACCTTCCCCACCCTCCCCACCCTCCCCA; test: fluorescence quenching titration; settings: K+ (60 mM K-cacodylate); pH 6 (folded at pH 4.8), 25 °C, 250 nM DNA
[14] = tested on: dual labeled BCL-2-C (DNA, i motif) CAGCCCCGCTCCCGCCCCCTTCCTCCCGCGCCCGCCCCT; test: FRET melting; settings: K+ (60 mM K-cacodylate); pH 6 (folded at pH 4.8); 1 μM compound, 100 nM DNA
[15] = tested on: dual labeled ds DNA (DNA, hairpin, hexaethylene glycol (HEG) linker between 10 and 11) TATAGCTATATATAGCTATA; test: FRET melting; settings: K+ (60 mM K-cacodylate), pH 6 (Table 1; also pH 7), 1 μM compound, 100 nM DNA
[16] = tested on: 3′-TAMRA-BCL-2-C (DNA, i motif) CAGCCCCGCTCCCGCCCCCTTCCTCCCGCGCCCGCCCCT; test: fluorescence quenching titration; settings: K+ (60 mM K-cacodylate); pH 6 (folded at pH 4.8), 25 °C, 250 nM DNA
[17] = tested on: 3′-TAMRA-BCL-2-G (DNA, G4) AGGGGCGGGCGCGGGAGGAAGGGGGCGGGAGCGGGGCGT; test: fluorescence quenching titration; settings: K+ (60 mM K-cacodylate); pH 7, 25 °C, 250 nM DNA
[18] = tested on: dual labeled c-MYC-G (DNA, G4) TGGGGAGGGTGGGGAGGGTGGGGAAGGTGGGGA; test: FRET melting; settings: K+ (60 mM K-cacodylate); pH 7; 1 μM compound, 100 nM DNA

Compound	K d [1]	DC50 [2]	DC50 [3]	DC50 [4]	K d [5]	K d [6]	DC50 [7]	DC50 [8]	DC50 [9]	K d [10]	K d [11]	K d [12]	K d [13]	ΔT m [14]	ΔT m ([15]; no shift up to 10 μM)	K d [16]	K d [17]	ΔT m [18]	ΔT m ([15]; no shift up to 15 μM)
CN(C)CCCOc1cc(C(=O)NCc2cn(-c3ccc(NC(=O)[C@@H]4CCCN4)cc3)nn2)nc(C(=O)NCc2cn(-c3ccc(NC(=O)[C@@H]4CCCN4)cc3)nn2)c1	0.3 ± 5% μM	4 ± 5% μM	5.7 ± 5% μM	2.7 ± 5% μM	2.4 ± 5% μM	16.7 ± 5% μM	0.9 ± 5% μM	9.8 ± 5% μM	8.5 ± 5% μM	7.2 ± 5% μM	> 25 µM	12.5 ± 5% μM	5.9 ± 5% μM	29 ± 1 °C	0.94 ± 1 °C	2.1 ± 5% μM	11.5 ± 5% μM		
CN(C)CCCOc1cc(C(=O)NCc2cn(-c3cccc(NC(=O)[C@@H]4CCCN4)c3)nn2)nc(C(=O)NCc2cn(-c3cccc(NC(=O)[C@@H]4CCCN4)c3)nn2)c1	5.8 ± 5% μM	> 15 µM	2.4 ± 5% μM	6.8 ± 5% μM	9.5 ± 5% μM	4.1 ± 5% μM	8.2 ± 5% μM	4.7 ± 5% μM	1.3 ± 5% μM	1.9 ± 5% μM	> 25 µM	1.3 ± 5% μM	15.1 ± 5% μM			10.5 ± 5% μM	4.5 ± 5% μM	16 ± 1 °C	1.1 ± 1 °C
O=C(NCc1cn(-c2ccc(NC(=O)[C@@H]3CCCN3)cc2)nn1)c1cccc(C(=O)NCc2cn(-c3ccc(NC(=O)[C@@H]4CCCN4)cc3)nn2)n1		10 ± 5% μM	9 ± 5% μM	8.4 ± 5% μM			7.9 ± 5% μM	8.4 ± 5% μM	10.2 ± 5% μM										
